Measured values as given in PubChem BioAssay AID248 (DTP/NCI, 2004).
Several values for one entry are separate records, joined by “and”; a condition that tells them apart may be missing. Identical values can stand only once. Toxic doses and inconclusive results are not listed. Cut-off read from the data, not from the text of the source: active = T/C of 150% or more; inactive = T/C below 125%.

Test system: L1210 leukemia ip in BDF1 mice, survival T/C
Test: NCI In Vivo Anticancer Drug Screen. Data for tumor model L1210 Leukemia (intraperitoneal) in B6D2F1 (BDF1) mice
Settings: endpoint: mean survival time, higher = longer survival
Procedure, shortened: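 Transplantable tumor model; survival measured in treated vs vehicle control mice. Value = treated/control.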

[1] = dose: 100.0 mg/kg/injection, schedule: Q04DX002 (ip), vehicle: Klucel (hydroxypropylcellulose) (HPC)
[2] = dose: 200.0 mg/kg/injection, schedule: Q04DX002 (ip), vehicle: Klucel (hydroxypropylcellulose) (HPC)
[3] = dose: 100.0 mg/kg/injection, schedule: Q04DX003 (ip), vehicle: Klucel (hydroxypropylcellulose) (HPC)
[4] = dose: 200.0 mg/kg/injection, schedule: Q04DX003 (ip), vehicle: Klucel (hydroxypropylcellulose) (HPC)
[5] = dose: 400.0 mg/kg/injection, schedule: Q04DX003 (ip), vehicle: Klucel (hydroxypropylcellulose) (HPC)
[6] = dose: 100.0 mg/kg/injection, schedule: Q04DX003 (ip), vehicle: saline with Tween-80
[7] = dose: 200.0 mg/kg/injection, schedule: Q04DX003 (ip), vehicle: saline with Tween-80
[8] = dose: 400.0 mg/kg/injection, schedule: Q04DX003 (ip), vehicle: saline with Tween-80
[9] = dose: 100.0 mg/kg/injection, schedule: Q01DX009 (ip), vehicle: saline
[10] = dose: 200.0 mg/kg/injection, schedule: Q01DX009 (ip), vehicle: saline
[11] = dose: 400.0 mg/kg/injection, schedule: Q01DX009 (ip), vehicle: saline
[12] = dose: 100.0 mg/kg/injection, schedule: Q01DX001 (ip), vehicle: saline
[13] = dose: 200.0 mg/kg/injection, schedule: Q01DX001 (ip), vehicle: saline
[14] = dose: 400.0 mg/kg/injection, schedule: Q01DX001 (ip), vehicle: saline
[15] = dose: 100.0 mg/kg/injection, schedule: Q04DX003 (ip), vehicle: saline
[16] = dose: 200.0 mg/kg/injection, schedule: Q04DX003 (ip), vehicle: saline
[17] = dose: 400.0 mg/kg/injection, schedule: Q04DX003 (ip), vehicle: saline
[18] = dose: 100.0 mg/kg/injection, schedule: Q01DX001 (ip), vehicle: carboxymethylcellulose (CMC)
[19] = dose: 200.0 mg/kg/injection, schedule: Q01DX001 (ip), vehicle: carboxymethylcellulose (CMC)
[20] = dose: 400.0 mg/kg/injection, schedule: Q01DX001 (ip), vehicle: carboxymethylcellulose (CMC)

Measured: T/C

O=C1c2ccccc2C(=O)N1CCOCCOCCOCCN1C(=O)c2ccccc2C1=O
inactive: dose: 50.0 mg/kg/injection, schedule: Q01DX009 (ip), vehicle: saline with Tween-80 97 % of control | dose: 100.0 mg/kg/injection, schedule: Q01DX009 (ip), vehicle: saline with Tween-80 91 % of control | [1] 102 % of control | dose: 200.0 mg/kg/injection, schedule: Q01DX009 (ip), vehicle: saline with Tween-80 94 % of control | [2] 94 % of control | dose: 400.0 mg/kg/injection, schedule: Q04DX002 (ip), vehicle: Klucel (hydroxypropylcellulose) (HPC) 102 % of control

CCOC(=O)C1(C(=O)OCC)CCC(OCC)N1C(=O)c1cc2c(cc1[N+](=O)[O-])OCO2 (stereo not given)
inactive: [3] 99 % of control | [4] 105 % of control | [5] 97 % of control

COC(=O)C(Br)C(Br)c1ccc(OC)c(OC)c1 (stereo not given)
inactive: [3] 96 % of control | [4] 101 % of control | [5] 96 % of control

CCCCCCC(=O)Nc1cccc(OC(=O)NC)c1
inactive: [6] 98 % of control | [7] 96 % of control | [8] 88 % of control

CCOC(=O)CNC(=O)CNC(=O)CCCCSc1ncnc2nc[nH]c12
inactive: dose: 25.0 mg/kg/injection, schedule: Q01DX009 (ip), vehicle: saline 110 % of control | dose: 50.0 mg/kg/injection, schedule: Q01DX009 (ip), vehicle: saline 98 % of control | dose: 50.0 mg/kg/injection, schedule: Q01DX009 (oral), vehicle: saline 104 % of control | [9] 103 % of control | dose: 100.0 mg/kg/injection, schedule: Q01DX009 (oral), vehicle: saline 90 % of control | [10] 101 % of control | dose: 200.0 mg/kg/injection, schedule: Q01DX009 (oral), vehicle: saline 106 % of control | [11] 100 % of control | dose: 400.0 mg/kg/injection, schedule: Q01DX009 (oral), vehicle: saline 93 % of control | dose: 800.0 mg/kg/injection, schedule: Q01DX009 (ip), vehicle: saline 115 % of control | dose: 800.0 mg/kg/injection, schedule: Q01DX009 (oral), vehicle: saline 97 % of control

O=C(COc1ccc(Cl)cc1Cl)Nc1cccnc1
inactive: dose: 100.0 mg/kg/injection, schedule: Q01DX001 (ip), vehicle: Klucel (hydroxypropylcellulose) (HPC) 93 % of control | [6] 94 % of control | dose: 200.0 mg/kg/injection, schedule: Q01DX001 (ip), vehicle: Klucel (hydroxypropylcellulose) (HPC) 89 % of control | [7] 94 % of control | dose: 400.0 mg/kg/injection, schedule: Q01DX001 (ip), vehicle: Klucel (hydroxypropylcellulose) (HPC) 96 % of control

O=C1CC2CCCC(C1)N2Cc1ccccc1
inactive: [12] 92 % of control | [13] 97 % of control | [14] 101 % of control

Cc1cc(N=Nc2ccccc2)c2cccnc2c1N
inactive: dose: 50.0 mg/kg/injection, schedule: Q04DX003 (ip), vehicle: DMSO 91 % of control | dose: 100.0 mg/kg/injection, schedule: Q04DX003 (ip), vehicle: DMSO 97 % of control

O=C(CBr)c1cc2ncccc2c2ccccc12
inactive: dose: 12.5 mg/kg/injection, schedule: Q01DX009 (ip), vehicle: other 90 % of control | dose: 25.0 mg/kg/injection, schedule: Q01DX009 (ip), vehicle: other 94 % of control | dose: 50.0 mg/kg/injection, schedule: Q01DX009 (ip), vehicle: other 102 % of control

COC(=O)C(C)NC(=O)C1CSC(C)(C)N1C=O (stereo not given)
inactive: [15] 101 % of control | [16] 95 % of control | [17] 95 % of control

CC(N)C(=O)Nc1ccccc1 (stereo not given)
inactive: dose: 100.0 mg/kg/injection, schedule: Q01DX009 (ip), vehicle: water 94 % of control | dose: 100.0 mg/kg/injection, schedule: Q04DX003 (ip), vehicle: water 97 % of control | dose: 200.0 mg/kg/injection, schedule: Q01DX009 (ip), vehicle: water 100 % of control | dose: 200.0 mg/kg/injection, schedule: Q04DX003 (ip), vehicle: water 103 % of control | dose: 400.0 mg/kg/injection, schedule: Q01DX009 (ip), vehicle: water 100 % of control | dose: 400.0 mg/kg/injection, schedule: Q04DX003 (ip), vehicle: water 97 % of control

COc1cccc2c1C(=O)OC2=O
inactive: dose: 75.0 mg/kg/injection, schedule: Q01DX009 (ip), vehicle: Klucel (hydroxypropylcellulose) (HPC) 88 % of control | dose: 150.0 mg/kg/injection, schedule: Q01DX009 (ip), vehicle: Klucel (hydroxypropylcellulose) (HPC) 90 % of control | dose: 300.0 mg/kg/injection, schedule: Q01DX009 (ip), vehicle: Klucel (hydroxypropylcellulose) (HPC) 88 % of control

CCOC(=O)C1=C(C)CC(=O)NC1=O
inactive: [12] 115 % of control | [15] 108 % of control | [13] 114 % of control | [16] 90 % of control | [14] 111 % of control | [17] 90 % of control

CCC(CC)C(O)CC(O)CC(C)C (stereo not given)
inactive: dose: 25.0 mg/kg/injection, schedule: Q04DX003 (ip), vehicle: other 100 % of control | dose: 50.0 mg/kg/injection, schedule: Q04DX003 (ip), vehicle: other 106 % of control | dose: 100.0 mg/kg/injection, schedule: Q04DX003 (ip), vehicle: other 101 % of control

Cc1cc[n+](CCCCCCCCCO)cc1
inactive: [12] 103 % of control

CCCCCCCCCCCCCCCCN(C)c1ccc(C=O)cc1
inactive: [9] 97 % of control | [15] 104 % of control | [10] 100 % of control | [16] 98 % of control | [11] 103 % of control | [17] 105 % of control

O=[N+]([O-])c1cccc(-n2cccc2)c1
inactive: dose: 100.0 mg/kg/injection, schedule: Q01DX001 (ip), vehicle: steriod suspending solution 101 % of control | dose: 200.0 mg/kg/injection, schedule: Q01DX001 (ip), vehicle: steriod suspending solution 103 % of control | dose: 400.0 mg/kg/injection, schedule: Q01DX001 (ip), vehicle: steriod suspending solution 97 % of control

O=S(=O)(Nc1c(Cl)c(Cl)c(Cl)c(Cl)c1NS(=O)(=O)c1ccccc1)c1ccccc1
inactive: dose: 100.0 mg/kg/injection, schedule: Q01DX009 (ip), vehicle: Klucel (hydroxypropylcellulose) (HPC) 101 % of control | [3] 94 % of control | dose: 200.0 mg/kg/injection, schedule: Q01DX009 (ip), vehicle: Klucel (hydroxypropylcellulose) (HPC) 92 % of control | [4] 100 % of control | [5] 95 % of control

CCCCCCC(=O)N1CCOCC1
inactive: dose: 25.0 mg/kg/injection, schedule: Q04DX002 (ip), vehicle: saline 108 % of control | dose: 50.0 mg/kg/injection, schedule: Q04DX002 (ip), vehicle: saline 101 % of control | dose: 100.0 mg/kg/injection, schedule: Q04DX002 (ip), vehicle: saline 93 % of control and 92 % of control

O=C(Nc1ccc(Cl)cc1Cl)Nc1ccc(Cl)cc1Cl
inactive: [1] 91 % of control | [2] 94 % of control

C1=CC2CC1CC2CNCCN1CC1 (stereo not given)
inactive: dose: 10.0 mg/kg/injection, schedule: Q04DX003 (ip), vehicle: saline 106 % of control | dose: 20.0 mg/kg/injection, schedule: Q04DX003 (ip), vehicle: saline 87 % of control

COc1cc(C(C)=O)cc(OC)c1OC
inactive: [6] 102 % of control | [7] 96 % of control | [8] 98 % of control

COc1ccc(C=Nc2cccc(O)c2)cc1
inactive: [18] 95 % of control | [19] 95 % of control | [20] 92 % of control

COc1cc(C)c(OC)c(CCl)c1C
inactive: [6] 97 % of control | [7] 98 % of control | [8] 92 % of control

CC12CC3CC(C)(C1)CC(Br)(C3)C2
inactive: dose: 50.0 mg/kg/injection, schedule: Q01DX001 (ip), vehicle: carboxymethylcellulose (CMC) 104 % of control | [18] 101 % of control | [19] 113 % of control | [20] 107 % of control
